The supplement of paper PMC10307832

Legend:
Test in all cases: relative viability (nuclei count vs DMSO), 5 days (fraction); higher = more cells survive
GSK-J4 + Dasatinib = compound: CCOC(=O)CCNc1cc(N2CCc3ccccc3CC2)nc(-c2ccccn2)n1 [GSK-J4] + Cc1nc(Nc2ncc(C(=O)Nc3c(C)cccc3Cl)s2)cc(N2CCN(CCO)CC2)n1 [Dasatinib] (partner 0.075 µM)
Summary of the method: (§1)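 A single step with final 0.05% Triton X-100, 1% formaldehyde and 1 ug/ml Hoechst fixed the cells and stained nuclei 5 days after treatment. Lung cancer cell lines in 1536-well plates had been treated by pin tool the day after seeding with one drug alone or a fixed anchor-drug dose plus five library-drug doses (not always all listed) in √10 steps, and nuclei were counted on 4× images. Relative viability is the ratio of nuclei in treated wells to nuclei in vehicle wells, taken as the median of duplicate plates.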

AZ3146 + Trametinib = compound: CN1CCC(CC1)OC2=CC(=C(C=C2)NC3=NC=C4C(=N3)N(C(=O)N4C)C5CCCC5)OC [AZ3146] + CC(=O)Nc1cccc(-n2c(=O)n(C3CC3)c(=O)c3c(Nc4ccc(I)cc4F)n(C)c(=O)c(C)c32)c1 [Trametinib] (partner 0.02 µM)
Summary of the method: as §1

AZ3146 + Foretinib = compound: CN1CCC(CC1)OC2=CC(=C(C=C2)NC3=NC=C4C(=N3)N(C(=O)N4C)C5CCCC5)OC [AZ3146] + COc1cc2c(Oc3ccc(NC(=O)C4(C(=O)Nc5ccc(F)cc5)CC4)cc3F)ccnc2cc1OCCCN1CCOCC1 [Foretinib] (partner 0.25 µM)
Summary of the method: as §1

AZ3146 + Pictilisib = compound: CN1CCC(CC1)OC2=CC(=C(C=C2)NC3=NC=C4C(=N3)N(C(=O)N4C)C5CCCC5)OC [AZ3146] + CS(=O)(=O)N1CCN(Cc2cc3nc(-c4cccc5[nH]ncc45)nc(N4CCOCC4)c3s2)CC1 [Pictilisib] (partner 1 µM)
Summary of the method: as §1

Cell Line | relative viability (GSK-J4 + Dasatinib; first compound 0.5 µM) | relative viability (GSK-J4 + Dasatinib; first compound 1.581 µM) | relative viability (GSK-J4 + Dasatinib; first compound 5 µM) | relative viability (GSK-J4 + Dasatinib; first compound 15.81 µM) | relative viability (GSK-J4 + Dasatinib; first compound 50 µM) | relative viability (AZ3146 + Trametinib; first compound 0.08 µM) | relative viability (AZ3146 + Trametinib; first compound 0.253 µM) | relative viability (AZ3146 + Trametinib; first compound 0.8 µM) | relative viability (AZ3146 + Trametinib; first compound 2.53 µM) | relative viability (AZ3146 + Trametinib; first compound 8 µM) | relative viability (AZ3146 + Foretinib; first compound 0.08 µM) | relative viability (AZ3146 + Foretinib; first compound 0.253 µM) | relative viability (AZ3146 + Foretinib; first compound 0.8 µM) | relative viability (AZ3146 + Foretinib; first compound 2.53 µM) | relative viability (AZ3146 + Foretinib; first compound 8 µM) | relative viability (AZ3146 + Pictilisib; first compound 0.08 µM) | relative viability (AZ3146 + Pictilisib; first compound 0.253 µM) | relative viability (AZ3146 + Pictilisib; first compound 0.8 µM) | relative viability (AZ3146 + Pictilisib; first compound 2.53 µM) | relative viability (AZ3146 + Pictilisib; first compound 8 µM)
HCC-827 | 0.335 | 0.356 | 0.435 | 0.312 | 0.289 | 0.63 | 0.498 | 0.481 | 0.554 | 0.477 | 1.08 | 1 | 1.03 | 1.03 | 1.09 | 0.965 | 0.971 | 0.987 | 1.2 | 0.928
IA-LM |  |  |  |  |  |  |  |  |  |  | 1.21 | 1.36 | 1.33 | 1.08 | 0.285 | 0.306 | 0.425 | 0.354 | 0.381 | 0.225
NCI-H1623 | 0.562 | 0.576 | 0.629 | 0.38 | 0.51 |  |  |  |  |  | 0.797 | 0.757 | 0.855 | 0.955 | 0.899 |  |  |  |  | 
NCI-H3122 | 0.826 | 0.722 | 0.788 | 0.864 | 0.789 | 0.245 | 0.228 | 0.224 | 0.204 | 0.251 | 0.924 | 1.02 | 0.971 | 0.942 | 1.03 | 0.613 | 0.614 | 0.555 | 0.639 | 0.684
RERF-LC-KJ | 0.68 | 0.774 | 0.695 | 0.708 | 0.371 | 0.848 | 0.982 | 0.796 | 0.911 | 0.769 | 0.851 | 0.862 | 0.895 | 0.942 | 0.844 | 0.513 | 0.53 | 0.549 | 0.696 | 0.516
NCI-H1703 |  |  |  |  |  |  |  |  |  |  | 0.285 | 0.351 | 0.329 | 0.343 | 0.272 | 0.254 | 0.258 | 0.231 | 0.228 | 0.234
HCC-15 | 0.624 |  | 0.526 | 0.476 | 0.393 | 0.421 | 0.346 | 0.357 | 0.414 | 0.348 | 1.1 | 0.981 | 1.06 | 1.08 | 0.791 | 0.721 | 0.773 | 0.765 | 0.737 | 0.728
NCI-H1666 | 0.774 | 0.879 | 0.526 | 0.802 | 0.536 | 0.848 | 0.875 | 0.851 | 0.887 | 0.761 | 0.964 | 0.994 | 1.02 | 1.05 | 0.839 | 0.307 | 0.507 | 0.485 | 0.582 | 0.648
NCI-H1395 | 0.402 | 0.428 | 0.382 | 0.355 | 0.375 | 0.999 | 1.08 |  | 1.07 | 1.09 | 0.989 | 0.962 | 0.949 | 1.07 | 1.02 | 0.536 | 0.628 | 0.539 | 0.623 | 0.726
SK-LU-1 | 0.176 | 0.161 | 0.127 | 0.199 | 0.179 | 0.475 | 0.409 | 0.436 | 0.549 | 0.432 | 0.803 | 0.867 | 0.804 | 0.897 | 0.528 | 0.571 | 0.507 | 0.693 | 0.651 | 0.535
NCI-H1299 |  |  |  |  |  |  |  |  |  |  | 1.06 | 1.1 | 1.07 | 1.12 | 0.679 | 0.786 | 0.976 | 0.677 | 0.734 | 0.264
NCI-H1563 | 0.51 | 0.695 | 0.461 | 0.42 | 0.417 |  |  |  |  |  | 0.901 | 1.07 | 0.903 | 0.901 | 0.864 | 0.636 | 0.641 | 0.729 | 0.685 | 0.604
HOP-62 | 0.625 | 0.639 | 0.269 | 0.567 | 0.525 | 0.451 | 0.354 | 0.325 | 0.387 | 0.389 | 1.06 | 1.16 | 1.01 | 1.11 | 1.08 | 0.561 | 0.719 | 0.627 | 0.895 | 0.548
NCI-H1651 | 0.537 | 0.306 | 0.367 | 0.443 | 0.477 | 0.736 | 0.779 | 0.833 | 0.789 | 0.797 | 0.729 | 0.726 | 0.809 | 0.849 | 0.836 | 0.556 | 0.668 | 0.576 | 0.475 | 0.489
HCC-366 | 0.597 | 0.537 |  | 0.415 | 0.501 | 0.31 | 0.412 | 0.311 | 0.341 | 0.316 | 0.791 | 0.924 | 0.908 | 0.974 | 0.178 | 0.233 | 0.133 | 0.138 | 0.146 | 0.191
EMC-BAC-2 | 0.317 | 0.333 | 0.191 | 0.339 | 0.258 |  |  | 0.89 | 0.921 | 0.844 | 1.06 | 1.04 | 1.18 | 1.1 | 1.03 | 0.524 | 0.56 | 0.564 | 0.607 | 0.597
NCI-H2228 | 0.534 | 0.436 | 0.683 | 0.398 | 0.525 | 0.415 | 0.539 | 0.33 | 0.44 | 0.455 | 0.736 | 0.743 | 0.736 | 0.88 | 0.656 | 0.412 | 0.306 | 0.349 | 0.282 | 0.314
LK-2 | 0.354 |  | 0.267 | 0.229 | 0.241 | 0.591 | 0.684 | 0.956 | 0.914 | 0.747 | 0.934 | 1.21 | 1.7 | 1.46 | 1.3 | 0.49 |  |  | 0.668 | 0.668
